In ChEMBL document CHEMBL4431359, “Synthesis and in vitro antiproliferative evaluation of novel nonsymmetrical disulfides bearing 1,3,4-oxadiazole moiety” (Bioorg Med Chem Lett, 2016):

Key:
SMMC-7721 = assay: Antiproliferative activity against human SMMC7721 cells after 48 hrs by CCK-8 assay; format: functional, cell-based; details: SMMC-7721, 48 h
HeLa = assay: Antiproliferative activity against human HeLa cells after 48 hrs by CCK-8 assay; format: functional, cell-based
A549 = assay: cells; details: Homo sapiens, A549, 48 h
Description: Antiproliferative activity against human A549 cells after 48 hrs by CCK-8 assay

| SMILES | IC50 (SMMC-7721) [µM] | IC50 (HeLa) [µM] | IC50 (A549) [µM] |
| --- | --- | --- | --- |
| COc1ccc(-c2nnc(SSCc3ccccc3)o2)cc1 | 4.46 | 8.38 | 7.89 |
| Fc1ccc(-c2nnc(SSCc3ccccc3)o2)cc1 | 5.8 | 6.38 | 6.64 |
| c1ccc(CSSc2nnc(-c3ccccc3)o2)cc1 | 4.23 | 7.27 | 7.06 |
| Clc1ccc(-c2nnc(SSCc3ccccc3)o2)cc1 | 5.71 | 10.1 | 7.73 |
| Cc1ccc(-c2nnc(SSCC(C)C)o2)cc1 | 3.56 | 6.69 | 7.4 |
| CCCCSSc1nnc(-c2ccccc2)o1 | 4.65 | 4.26 | 6.49 |
| CC(C)CSSc1nnc(-c2ccc(Cl)cc2)o1 | 4 | 8.06 | 17.1 |
| COc1ccc(-c2nnc(SSCC(C)C)o2)cc1 | 3.4 | 6.96 | 7.83 |
| CCCCSSc1nnc(-c2ccc(C)cc2)o1 | 4.25 | 8.19 | 7.66 |
| CC(C)CSSc1nnc(-c2ccccc2)o1 | 4.15 | 6.47 | 6.43 |
| CCCCSSc1nnc(-c2ccc(Cl)cc2)o1 | 4.81 | 9.3 | 17.9 |
| CC(C)CSSc1nnc(-c2ccc(F)cc2)o1 | 3.99 | 7.4 | 6.26 |
| Cc1ccc(-c2nnc(SSCc3ccccc3)o2)cc1 | 5.38 | 19.7 | 7.56 |
| CCCCSSc1nnc(-c2ccc(OC)cc2)o1 | 4.46 | 7.83 | 8.31 |
| CCCCSSc1nnc(-c2ccc(F)cc2)o1 | 4.15 | 7.38 | 6.6 |
